# Source: ChEMBL document CHEMBL1201862, “PubChem BioAssay data set” (2004)
#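 Following 48 hours of exposure in 96-well plates, responses at five concentrations were used to interpolate endpoints linearly. The concentration for 50% growth inhibition is given as GI50.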 Activity calls are given as the source filed them. No stated cut-off is given here; in the data, active = GI50 up to about 1.1 µM and inactive = higher.
# How the values were obtained:
# Test in all cases: inhibition of tumour cell growth, NCI panel, 48 h
# HOP-92 = test system: HOP-92
# CAKI-1 = test system: CAKI-1
# SNB-19 = test system: SNB-19
# T47D = test system: T47D
# ACHN = test system: ACHN
# MCF7 = test system: MCF7
# PC-3 = test system: PC-3
# A498 = test system: A498
# SK-OV-3 = test system: SK-OV-3
# NCI-H460 = test system: NCI-H460
# LOX IMVI = test system: LOX IMVI
# HCT-15 = test system: HCT-15
# K562 = test system: K562
# OVCAR-8 = test system: OVCAR-8
# SF-539 = test system: SF-539
# UO-31 = test system: UO-31
# EKVX = test system: EKVX
# IGROV-1 = test system: IGROV-1
# Malme-3M = test system: Malme-3M
# MDA-MB-231 = test system: MDA-MB-231
SMILES,GI50 (HOP-92),GI50 (CAKI-1),GI50 (SNB-19),GI50 (T47D),GI50 (ACHN),GI50 (MCF7),GI50 (PC-3),GI50 (A498),GI50 (SK-OV-3),GI50 (NCI-H460),GI50 (LOX IMVI),GI50 (HCT-15),GI50 (K562),GI50 (OVCAR-8),GI50 (SF-539),GI50 (UO-31),GI50 (EKVX),GI50 (IGROV-1),GI50 (Malme-3M),GI50 (MDA-MB-231)
O=C(O)CN1C(=O)CN=C(c2ccccn2)c2cc(Cl)ccc21,> 100 µM (inactive),> 100 µM (inactive),> 100 µM (inactive),> 100 µM (inactive),> 100 µM (inactive),> 100 µM (inactive),> 100 µM (inactive),> 100 µM (inactive),> 100 µM (inactive),> 100 µM (inactive),> 100 µM (inactive),> 100 µM,> 100 µM (inactive),> 100 µM (inactive),> 100 µM (inactive),> 100 µM (inactive),> 100 µM (inactive),> 100 µM (inactive),> 100 µM (inactive),> 100 µM (inactive)
CS(=O)(=O)c1cc(=O)c2ccccc2s1,1.8 µM (inactive),2.07 µM (inactive),17.5 µM (inactive),3.08 µM (inactive),2.74 µM (inactive),2.72 µM (inactive),17.6 µM (inactive),17.1 µM (inactive),17.6 µM (inactive),18.1 µM (inactive),6.68 µM (inactive),2.25 µM,1.33 µM (inactive),2.93 µM (inactive),13.2 µM (inactive),15.7 µM (inactive),9.06 µM (inactive),18.5 µM (inactive),1.8 µM (inactive),15 µM (inactive)
O=C1c2c(Br)sc(Br)c2C(NC(=O)C(F)(F)F)C1O (stereo not given),18.8 µM (inactive),17.5 µM (inactive),24.4 µM (inactive),24.4 µM (inactive),29.5 µM (inactive),22.8 µM (inactive),26.1 µM (inactive),> 100 µM (inactive),19.3 µM (inactive),20.4 µM (inactive),21.8 µM (inactive),16.7 µM,12.1 µM (inactive),20.3 µM (inactive),15.7 µM (inactive),22.4 µM (inactive),19.5 µM (inactive),20.2 µM (inactive),20.2 µM (inactive),19.2 µM (inactive)
C/C(C=O)=C/[C@@]1(C)O[C@@H](C)[C@@](C)(O)[C@@H]1O,37.2 µM (inactive),19.9 µM (inactive),61.1 µM (inactive),> 100 µM (inactive),24.5 µM (inactive),25.6 µM (inactive),47.5 µM (inactive),83.6 µM (inactive),> 100 µM (inactive),22.2 µM (inactive),95.5 µM (inactive),22.2 µM,7.94 µM (inactive),18.8 µM (inactive),40.2 µM (inactive),1.3 µM (inactive),> 100 µM (inactive),> 100 µM (inactive),52 µM (inactive),> 100 µM (inactive)
CC(=O)Nc1ccc(N2C(=O)/C(=C\c3cccc(Oc4ccccc4)c3)S(=O)(=O)C2c2ccccc2)cc1 (stereo not given),55.2 µM (inactive),> 100 µM (inactive),90.2 µM (inactive),35.9 µM (inactive),74.1 µM (inactive),32.2 µM (inactive),61.1 µM (inactive),> 100 µM (inactive),> 100 µM (inactive),> 100 µM (inactive),41 µM (inactive),> 100 µM,37.3 µM (inactive),35.7 µM (inactive),24.3 µM (inactive),29.7 µM (inactive),> 100 µM (inactive),51.2 µM (inactive),> 100 µM (inactive),> 100 µM (inactive)
CCO[C@@]12CCC3CC4CC[C@@](OCC)(O1)C4C32 (stereo not given in full),> 100 µM (inactive),> 100 µM (inactive),> 100 µM (inactive),> 100 µM (inactive),> 100 µM (inactive),> 100 µM (inactive),> 100 µM (inactive),> 100 µM (inactive),> 100 µM (inactive),> 100 µM (inactive),> 100 µM (inactive),> 100 µM,> 100 µM (inactive),> 100 µM (inactive),> 100 µM (inactive),> 100 µM (inactive),> 100 µM (inactive),> 100 µM (inactive),> 100 µM (inactive),> 100 µM (inactive)
